Reference: the supplement of paper PMC10307832

Legend:
Experiment in all cases: relative viability (nuclei count vs DMSO), 5 days (fraction); higher = more cells survive
IDH-C35 + Tozasertib = compound: Cc1ccccc1C(C(=O)NC1CCCCC1)N(C(=O)Cn1ccnc1C)c1cccc(F)c1 [IDH-C35] + Cc1cc(Nc2cc(N3CCN(C)CC3)nc(Sc3ccc(NC(=O)C4CC4)cc3)n2)n[nH]1 [Tozasertib] (partner 0.1 µM)
Procedure, shortened: (§1)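 Nuclei were stained with Hoechst during a one-step fixation (final 0.05% Triton X-100, 1% formaldehyde, 1 ug/ml Hoechst) carried out 5 days after dosing, then counted on 4× images. The cells, lung cancer lines in 1536-well plates, had been dosed by pin tool the day after seeding with one drug alone or a fixed anchor-drug dose plus five library-drug doses (not always all listed) in √10 steps. Relative viability is the nuclei count in treated wells divided by that in vehicle wells, and each value is the median of duplicate plates.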

IDH-C35 + Olaparib = compound: Cc1ccccc1C(C(=O)NC1CCCCC1)N(C(=O)Cn1ccnc1C)c1cccc(F)c1 [IDH-C35] + O=C(c1cc(Cc2n[nH]c(=O)c3ccccc23)ccc1F)N1CCN(C(=O)C2CC2)CC1 [Olaparib] (partner 8 µM)
Procedure, shortened: as §1

IDH-C35 + Luminespib = compound: Cc1ccccc1C(C(=O)NC1CCCCC1)N(C(=O)Cn1ccnc1C)c1cccc(F)c1 [IDH-C35] + CCNC(=O)c1noc(-c2cc(C(C)C)c(O)cc2O)c1-c1ccc(CN2CCOCC2)cc1 [Luminespib] (partner 0.01 µM)
Procedure, shortened: as §1

[1] = compound: CC1=C(C(=NN1)C)CC2=C(C3=C(S2)N(C(=O)N(C3=O)C)CC(C)C)C(=O)N4C[C@@H](CO4)O + O=C(CCCCCCC(=O)Nc1ccccc1)NO [Vorinostat] (partner 1 µM)
Procedure, shortened: as §1

| Cell Line | relative viability (IDH-C35 + Tozasertib; first compound 0.08 µM) | relative viability (IDH-C35 + Tozasertib; first compound 0.253 µM) | relative viability (IDH-C35 + Tozasertib; first compound 0.8 µM) | relative viability (IDH-C35 + Tozasertib; first compound 2.53 µM) | relative viability (IDH-C35 + Tozasertib; first compound 8 µM) | relative viability (IDH-C35 + Olaparib; first compound 0.08 µM) | relative viability (IDH-C35 + Olaparib; first compound 0.253 µM) | relative viability (IDH-C35 + Olaparib; first compound 0.8 µM) | relative viability (IDH-C35 + Olaparib; first compound 2.53 µM) | relative viability (IDH-C35 + Olaparib; first compound 8 µM) | relative viability (IDH-C35 + Luminespib; first compound 0.08 µM) | relative viability (IDH-C35 + Luminespib; first compound 0.253 µM) | relative viability (IDH-C35 + Luminespib; first compound 0.8 µM) | relative viability (IDH-C35 + Luminespib; first compound 2.53 µM) | relative viability (IDH-C35 + Luminespib; first compound 8 µM) | relative viability ([1]; first compound 0.0025 µM) | relative viability ([1]; first compound 0.007906 µM) | relative viability ([1]; first compound 0.025 µM) | relative viability ([1]; first compound 0.07906 µM) | relative viability ([1]; first compound 0.25 µM) |
| --- | --- | --- | --- | --- | --- | --- | --- | --- | --- | --- | --- | --- | --- | --- | --- | --- | --- | --- | --- | --- |
| NCI-H520 | 0.327 | 0.427 | 0.54 | 0.405 | 0.409 | 0.309 | 0.284 | 0.313 | 0.308 | 0.351 | 0.26 | 0.189 | 0.27 | 0.21 | 0.269 | 0.678 | 0.777 | 0.594 | 0.577 | 0.684 |
| NCI-H460 | 0.614 | 0.396 | 0.493 | 0.336 | 0.412 | 0.416 | 0.419 | 0.439 | 0.387 | 0.367 | 0.0343 | 0.0424 | 0.0346 | 0.0408 | 0.0379 | 0.859 | 0.689 | 0.634 | 0.723 | 0.857 |
| EKVX | 0.422 | 0.373 | 0.361 | 0.378 | 0.344 | 0.859 | 0.892 | 0.836 | 0.918 | 0.802 | 0.93 | 0.908 | 0.822 | 0.842 | 0.845 | 0.863 | 0.756 | 0.806 | 0.604 | 0.416 |
| NCI-H358 | 0.099 | 0.112 | 0.112 | 0.0888 | 0.0934 | 0.57 | 0.491 | 0.549 | 0.575 | 0.554 | 0.526 | 0.388 | 0.283 | 0.26 | 0.242 | 0.704 | 0.575 | 0.677 | 0.803 | 0.836 |
| EPLC-272H | 0.262 | 0.193 | 0.254 | 0.333 | 0.217 | 0.836 | 0.866 | 1.24 | 0.904 | 0.603 | 0.262 | 0.265 | 0.605 | 0.351 | 0.428 | 0.454 | 0.447 | 0.61 | 0.438 | 0.351 |
| NCI-H1395 | 0.723 | 0.831 | 0.735 | 0.728 | 0.774 | 0.436 | 0.449 | 0.473 | 0.463 | 0.464 | 0.757 | 0.655 | 0.744 | 0.763 | 0.714 | 0.75 | 0.663 | 0.508 | 0.756 | 0.683 |
| NCI-H2126 | 0.81 | 0.812 | 0.865 | 0.824 | 0.884 | 0.896 | 0.928 | 0.92 | 0.912 | 0.917 | 0.841 | 0.858 | 0.892 | 0.897 | 0.883 | 0.919 | 0.894 | 0.844 | 0.84 | 0.674 |
| LXF-289 | 0.17 | 0.173 | 0.201 | 0.209 | 0.166 | 1.1 | 0.996 | 1.03 | 1.01 | 1.08 | 0.512 | 0.631 | 0.654 | 0.697 | 0.676 | 0.881 | 0.748 | 0.829 | 0.671 | 0.762 |
